Assay results reported in patent publication US20240294508A1, “RIP1 MODULATORS INCLUDING AZETIDINE CYCLIC UREAS, PREPARATIONS, AND USES THEREOF” (SIRONAX LTD., priority 2021, published 2024).

The compounds below were run on HT-29 cells (assay: HT29 cells 0FBS assay in vitro: TNF-α/SMAC mimetic/zVAD-FMK induced necroptosis, CellTiter-Glo cell viability (RIP1 inhibitory activity)). Conditions: Homo sapiens, FBS free medium, TNF-α (10 ng/ml) + SMAC mimetic (6 uM) + zVAD-FMK (10 μM), 20 hours, geometric mean EC50.
Format: cell-based
Outline: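 HT-29 cells (5,000/well, overnight) switched to FBS-free McCOY's 5A with TNF-α (10 ng/ml), SMAC mimetic (6 uM) and zVAD-FMK (10 μM) to drive necroptosis, plus compound, for 20 hours at 37° C. Viability read by CellTiter-Glo luminescence; geometric mean EC50 from 10-point duplicate dose-response.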

Compared with `Cn1ccnc1-c1cc(OC2CN(C(=O)N3N=CC[C@H]3c3cncc(C#N)c3)C2)c(F)cn1` [Compound 38, (S)-5-(1-(3-((5-fluoro-2-(1-methyl-1H-imidazol-2-yl)pyridin-4-yl)oxy)azetidine-1-carbonyl)-4,5-dihydro-1H-pyrazol-5-yl)nicotinonitrile], `Cn1ccnc1-c1cc(OC2CN(C(=O)N3N=CC[C@H]3c3cc(F)cc(C#N)c3)C2)c(F)cn1` [Compound 36, (S)-3-fluoro-5-(1-(3-((5-fluoro-2-(1-methyl-1H-imidazol-2-yl)pyridin-4-yl)oxy)azetidine-1-carbonyl)-4,5-dihydro-1H-pyrazol-5-yl)benzonitrile] is lower in EC50: 100 to 1000 nM for the first, 0.1 to 100 nM for the second.

`Cc1nn(-c2cc(OC3CN(C(=O)N4N=CC[C@H]4c4cc(F)cc(F)c4)C3)c(Cl)cn2)c(C)c1C#N` [Compound 159, (S)-1-(5-chloro-4-((1-(5-(3,5-difluorophenyl)-4,5-dihydro-1H-pyrazole-1-carbonyl)azetidin-3-yl)oxy)pyridin-2-yl)-3,5-dimethyl-1H-pyrazole-4-carbonitrile] and `Cc1nn(-c2cc(OC3CN(C(=O)N4N=CC[C@H]4c4cc(F)cc(Cl)c4)C3)c(F)cn2)c(C)c1C(=O)O` [Compound 140, (S)-1-(4-((1-(5-(3-chloro-5-fluorophenyl)-4,5-dihydro-1H-pyrazole-1-carbonyl)azetidin-3-yl)oxy)-5-fluoropyridin-2-yl)-3,5-dimethyl-1H-pyrazole-4-carboxylic acid] fall in the same range of EC50: 0.1 to 100 nM for the first, 0.1 to 100 nM for the second.

First: Cn1cccc(-c2cc(OC3CN(C(=O)N4N=CC[C@H]4c4cc(F)cc(F)c4)C3)c(F)cn2)c1=O (stereo in doubt) [Compound 169, 4-((1-(5-(3,5-difluorophenyl)-4,5-dihydro-1H-pyrazole-1-carbonyl)azetidin-3-yl)oxy)-5-fluoro-1′-methyl-[2,3′-bipyridin]-2′(1′H)-one]
Second: Cc1ncn(C)c1-c1cc(OC2CN(C(=O)N3N=CC[C@H]3c3cc(F)cc(C#N)c3)C2)c(F)cn1 [Compound 22, (S)-3-(1-(3-((2-(1,4-dimethyl-1H-imidazol-5-yl)-5-fluoropyridin-4-yl)oxy)azetidine-1-carbonyl)-4,5-dihydro-1H-pyrazol-5-yl)-5-fluorobenzonitrile]
The EC50 of the first is higher: 100 to 1000 nM for the first, 0.1 to 100 nM for the second.

Compared with `Cc1nc(C2CC=NN2C(=O)N2CC(Oc3cc(-c4c(C)cnn4C)ncc3F)C2)cs1` (stereo not drawn) [Compound 96, (3-((2-(1,4-dimethyl-1H-pyrazol-5-yl)-5-fluoropyridin-4-yl)oxy)azetidin-1-yl)(5-(2-methylthiazol-4-yl)-4,5-dihydro-1H-pyrazol-1-yl)methanone], `Cc1nc(C2CC=NN2C(=O)N2CC(Oc3cc(-c4c(C)cnn4C)ncc3Cl)C2)cs1` (stereo not drawn) [Compound 127, (3-((5-chloro-2-(1,4-dimethyl-1H-pyrazol-5-yl)pyridin-4-yl)oxy)azetidin-1-yl)(5-(2-methylthiazol-4-yl)-4,5-dihydro-1H-pyrazol-1-yl)methanone] is higher in EC50: 0.1 to 100 nM for the first, 1000 to 10000 nM for the second. The first is the more potent here.

First: Cn1cc(-c2cc(OC3CN(C(=O)N4N=CC[C@H]4c4cc(F)cc(C#N)c4)C3)c(F)cn2)nn1 [Compound 14, (S)-3-fluoro-5-(1-(3-((5-fluoro-2-(1-methyl-1H-1,2,3-triazol-4-yl)pyridin-4-yl)oxy)azetidine-1-carbonyl)-4,5-dihydro-1H-pyrazol-5-yl)benzonitrile]
Second: Cc1nscc1-c1cc(OC2CN(C(=O)N3N=CC[C@H]3c3cc(F)cc(C#N)c3)C2)c(F)cn1 [Compound 17, (S)-3-fluoro-5-(1-(3-((5-fluoro-2-(3-methylisothiazol-4-yl)pyridin-4-yl)oxy)azetidine-1-carbonyl)-4,5-dihydro-1H-pyrazol-5-yl)benzonitrile]
The EC50 of the first is higher: 100 to 1000 nM for the first, 0.1 to 100 nM for the second.

`Cc1c(N)nn(C)c1-c1ccc(F)c(OC2CN(C(=O)N3N=CC[C@H]3c3cncc(F)c3)C2)n1` [Compound 67, (S)-(3-((6-(3-amino-1,4-dimethyl-1H-pyrazol-5-yl)-3-fluoropyridin-2-yl)oxy)azetidin-1-yl)(5-(5-fluoropyridin-3-yl)-4,5-dihydro-1H-pyrazol-1-yl)methanone] and `Cc1cnn(C)c1-c1ccc(F)c(OC2CN(C(=O)N3N=CC[C@H]3c3cc(F)cc(C#N)c3)C2)n1` [Compound 53, (S)-3-(1-(3-((6-(1,4-dimethyl-1H-pyrazol-5-yl)-3-fluoropyridin-2-yl)oxy)azetidine-1-carbonyl)-4,5-dihydro-1H-pyrazol-5-yl)-5-fluorobenzonitrile] fall in the same range of EC50: 0.1 to 100 nM for the first, 0.1 to 100 nM for the second.

`Cn1ncc(C#N)c1-c1ncc(F)c(OC2CN(C(=O)N3N=CC[C@H]3c3cc(F)cc(C#N)c3)C2)n1` [Compound 8, (S)-5-(4-((1-(5-(3-cyano-5-fluorophenyl)-4,5-dihydro-1H-pyrazole-1-carbonyl)azetidin-3-yl)oxy)-5-fluoropyrimidin-2-yl)-1-methyl-1H-pyrazole-4-carbonitrile] and `Cn1ncc(C#N)c1-c1ccc(F)c(OC2CN(C(=O)N3N=CC[C@H]3c3cc(F)cc(C#N)c3)C2)n1` [Compound 40, (S)-5-(6-((1-(5-(3-cyano-5-fluorophenyl)-4,5-dihydro-1H-pyrazole-1-carbonyl)azetidin-3-yl)oxy)-5-fluoropyridin-2-yl)-1-methyl-1H-pyrazole-4-carbonitrile] fall in the same range of EC50: 0.1 to 100 nM for the first, 0.1 to 100 nM for the second.

Compared with `Cc1nc(C)c(C2CC=NN2C(=O)N2CC(Oc3cc(-c4c(C)cnn4C)ncc3F)C2)s1` (stereo not drawn) [Compound 119, (3-((2-(1,4-dimethyl-1H-pyrazol-5-yl)-5-fluoropyridin-4-yl)oxy)azetidin-1-yl)(5-(2,4-dimethylthiazol-5-yl)-4,5-dihydro-1H-pyrazol-1-yl)methanone], `Cc1cnn(C)c1-c1cc(OC2CN(C(=O)N3N=CCC3c3ccn(C)c3)C2)c(F)cn1` (stereo not drawn) [Compound 145, (3-((2-(1,4-dimethyl-1H-pyrazol-5-yl)-5-fluoropyridin-4-yl)oxy)azetidin-1-yl)(5-(1-methyl-1H-pyrrol-3-yl)-4,5-dihydro-1H-pyrazol-1-yl)methanone] is lower in EC50: 100 to 1000 nM for the first, 0.1 to 100 nM for the second.

`Cc1nn(-c2cc(OC3CN(C(=O)N4N=CC[C@H]4c4ccccc4)C3)c(F)cn2)c(C)c1C(=O)O` [Compound 84, (S)-1-(5-fluoro-4-((1-(5-phenyl-4,5-dihydro-1H-pyrazole-1-carbonyl)azetidin-3-yl)oxy)pyridin-2-yl)-3,5-dimethyl-1H-pyrazole-4-carboxylic acid] and `Cc1nn(-c2cc(OC3CN(C(=O)N4N=CC[C@H]4c4ccccc4)C3)c(F)cn2)c(C)c1C(=O)NC1COC1` [Compound 76, (S)-1-(5-fluoro-4-((1-(5-phenyl-4,5-dihydro-1H-pyrazole-1-carbonyl)azetidin-3-yl)oxy)pyridin-2-yl)-3,5-dimethyl-N-(oxetan-3-yl)-1H-pyrazole-4-carboxamide] fall in the same range of EC50: 0.1 to 100 nM for the first, 0.1 to 100 nM for the second.

`Cc1nn(C)c(C)c1-c1cc(OC2CN(C(=O)N3N=CC[C@H]3c3cc(F)cc(C#N)c3)C2)c(F)cn1` [Compound 47, (S)-3-fluoro-5-(1-(3-((5-fluoro-2-(1,3,5-trimethyl-1H-pyrazol-4-yl)pyridin-4-yl)oxy)azetidine-1-carbonyl)-4,5-dihydro-1H-pyrazol-5-yl)benzonitrile] and `Cc1c(C#N)nn(C)c1-c1cc(OC2CN(C(=O)N3N=CC[C@H]3c3cc(F)cc(C#N)c3)C2)c(F)cn1` [Compound 51, (S)-5-(4-((1-(5-(3-cyano-5-fluorophenyl)-4,5-dihydro-1H-pyrazole-1-carbonyl)azetidin-3-yl)oxy)-5-fluoropyridin-2-yl)-1,4-dimethyl-1H-pyrazole-3-carbonitrile] fall in the same range of EC50: 0.1 to 100 nM for the first, 0.1 to 100 nM for the second.

`Cc1nc(C2CC=NN2C(=O)N2CC(Oc3nc(-c4c(C)cnn4C)c(F)cc3F)C2)cs1` (stereo not drawn) [Compound 122, (3-((6-(1,4-dimethyl-1H-pyrazol-5-yl)-3,5-difluoropyridin-2-yl)oxy)azetidin-1-yl)(5-(2-methylthiazol-4-yl)-4,5-dihydro-11H-pyrazol-1-yl)methanone] and `Cc1ncc(C2CC=NN2C(=O)N2CC(Oc3nc(-c4c(C)cnn4C)c(F)cc3F)C2)s1` (stereo not drawn) [Compound 123, (3-((6-(1,4-dimethyl-1H-pyrazol-5-yl)-3,5-difluoropyridin-2-yl)oxy)azetidin-1-yl)(5-(2-methylthiazol-5-yl)-4,5-dihydro-1H-pyrazol-1-yl)methanone] fall in the same range of EC50: 0.1 to 100 nM for the first, 0.1 to 100 nM for the second.

First: Cn1nccc1-c1csc(OC2CN(C(=O)N3N=CC[C@H]3c3cc(F)cc(F)c3)C2)n1 [Compound 147, (S)-(5-(3,5-difluorophenyl)-4,5-dihydro-1H-pyrazol-1-yl)(3-((4-(1-methyl-1H-pyrazol-5-yl)thiazol-2-yl)oxy)azetidin-1-yl)methanone]
Second: Cc1cnn(C)c1-c1nc(OC2CN(C(=O)N3N=CC[C@H]3c3cc(F)cc(F)c3)C2)sc1CO [Compound 157, (S)-(5-(3,5-difluorophenyl)-4,5-dihydro-11H-pyrazol-1-yl)(3-((4-(1,4-dimethyl-1H-pyrazol-5-yl)-5-(hydroxymethyl)thiazol-2-yl)oxy)azetidin-1-yl)methanone]
The EC50 of the first is lower: 0.1 to 100 nM for the first, 1000 to 10000 nM for the second.

First: Cc1nn(-c2cc(OC3CN(C(=O)N4N=CC[C@H]4c4cccc(F)c4)C3)c(F)cn2)c(C)c1S(N)(=O)=O [Compound 114, (S)-1-(5-fluoro-4-((1-(5-(3-fluorophenyl)-4,5-dihydro-1H-pyrazole-1-carbonyl)azetidin-3-yl)oxy)pyridin-2-yl)-3,5-dimethyl-1H-pyrazole-4-sulfonamide]
Second: Cc1nn(-c2cc(OC3CN(C(=O)N4N=CC[C@@H]4c4cc(F)cc(F)c4F)C3)c(F)cn2)c(C)c1S(N)(=O)=O [Compound 125, (R)-1-(5-fluoro-4-((1-(5-(2,3,5-trifluorophenyl)-4,5-dihydro-1H-pyrazole-1-carbonyl)azetidin-3-yl)oxy)pyridin-2-yl)-3,5-dimethyl-1H-pyrazole-4-sulfonamide]
The EC50 of the first is lower: 0.1 to 100 nM for the first, 100 to 1000 nM for the second. The first is the more potent here.

For `Cc1nn(-c2cc(OC3CN(C(=O)N4N=CC[C@@H]4c4cc(F)cc(F)c4F)C3)c(F)cn2)c(C)c1C(=O)O` [Compound 105, (R)-1-(5-fluoro-4-((1-(5-(2,3,5-trifluorophenyl)-4,5-dihydro-1H-pyrazole-1-carbonyl)azetidin-3-yl)oxy)pyridin-2-yl)-3,5-dimethyl-1H-pyrazole-4-carboxylic acid], the EC50 was 1000 to 10000 nM.
